According to PMC12608337 (Molecules, 2025):

Legend:
Spodoptera littoralis = details: cited from earlier work
wt-YFV = type: cell-based, yellow fever virus
in vitro = details: African green monkey (Cercopithecus aethiops)
[1] = test system: herpes simplex virus (type 1); details: cited from earlier work
[2] = test system: dengue virus type 2 (DENV-2); details: cited from earlier work
Zika virus (ZIKV) = details: cited from earlier work
ZIKV = details: mouse, in vivo; cited from earlier work

SMILES	antiviral activity against wt-YFV (wt-YFV)	CC50 (in vitro) [µM]	other results
COc1cc2c(cc1OC)[C@@H]1[C@H](O)[C@@H](OC)[C@H](OC(C)=O)C3=CCN(C2)[C@H]31 [3-O-acetyl-narcissidine, 3-O-acetylnarcissidine]	–	–	antifeedant effect (Spodoptera littoralis): exhibited an antifeedant effect
COc1c2c(cc3c1OCO3)[C@@]13CCN(C2)[C@@H]1CC[C@H](O)[C@@H]3O [Bulbisine, bulbisine]	did not reveal significant antiviral activity	123	–
C[n+]1cccc(C(=O)[O-])c1 [Trigonelline, trigonelline]	did not reveal significant antiviral activity	~1000	inhibition of survival of herpes simplex virus (type 1) [1]: significantly inhibited the survival
N=C(N)NCCC[C@H](N)C(=O)O [arginine]	did not reveal significant antiviral activity	~1000	–
NC(=O)C[C@H](N)C(=O)O [asparagine]	did not reveal significant antiviral activity	~1000	–
N[C@@H](CCC(=O)O)C(=O)O [glutamic acid]	did not reveal significant antiviral activity	–	–
O[C@H]1[C@H]2c3cc4c(cc3CN3CCC(=C[C@@H]1O)[C@H]23)OCO4 [lycorine]	–	–	antiviral activity against DENV-2 [2]: exhibits antiviral activity; antiviral activity against ZIKV (Zika virus (ZIKV)): exhibits antiviral activity; mortality (ZIKV): reduced mortality; viral load in the blood (ZIKV): lower viral load in the blood
N[C@@H](Cc1c[nH]c2ccccc12)C(=O)O [tryptophan]	did not reveal significant antiviral activity	578	–
